Read-outs that look alike come from different tables or passages of the source. Blank lines part the entries; values can stand above or below the compound they belong to.
Tests used:
Dogs = test system: Dogs; parameters: method as in PMID 8053022, PMID 8053028, PMID 7943542; conditions: for 4 weeks; cited from earlier work
[1] = parameters: method as in PMID 11060779; conditions: cited from earlier work
[2] = parameters: method as in Teja-Isavadharm et al. (1996); conditions: after oral administration compared with i.m. injection of ARM in an oil-based vehicle; ref Teja-Isavadharm et al. (1996); cited from earlier work
beagle dogs [3] = experiment: Electrocardiography in the 13-week repeated-dose dog study; type: in vivo; conditions: 6 mg kg^-1 per day p.o.; weeks 3 and 5 in males, weeks 5–9 in females (p<0.01), late stages (p<0.05)
Description: (§1) The first day of treatment was regarded as day one in the study. […] Oral administration was performed about 2 h after feeding. ARM was administered by a bolus intramuscular infusion through a 25-gauge needle at a constant volume of 2 ml kg^−1 once a day into the gluteal and infraspinous muscles. Two dogs of each sex from each group were allowed to recover without further treatment for an additional 4 weeks.
Electrocardiograms were recorded using an Auto Electrocardiogram (ECG-9130P, Nihon Kohden Corporation, Japan). Recordings were taken from each dog, while conscious, every 2 weeks from week-1. Leads I, II, III, aVR, aVL and aVF were utilized. The electrocardiography (ECG) parameters included heart rate, PR, QRS and QT interval, and QRS and T wave amplitudes. As the PQ and QT intervals vary with heart rate, they were adjusted to an RR-interval of 500 ms, corresponding to a heart rate of 120 bpm using the following equation: QT500 = QT – 0.084×(RR – 500).

beagle dogs [4] = experiment: Clinical chemistry in the 13-week repeated-dose dog study; type: in vivo
Description: as §1
(§2) Blood samples were collected from the femoral vein of each dog prior to treatment and every 2 weeks after the first day of treatment. Hematology parameters were measured using an automated hematology analyzer (Sysmex, XT-2000iv, Toa Medical Electronics Co. Ltd., Kobe, Japan) using standard methods. Test parameters included hemoglobin (Hb) levels, the hematocrit (Hct) fraction, erythrocyte (RBC) count, leukocyte (WBC) count, neutrophilic granulocyte fraction (NE%), monocyte fraction (MO%), lymphocyte levels (LY%), platelet count (PLT), reticulocyte count (RET%) and RBC morphology. The following clinical chemistry parameters were measured using a Hitachi-7180 Chemistry Analyzer (High-Technologies Corporation, Tokyo, Japan) and standard methods: glucose, blood urea nitrogen, inorganic phosphorus, creatinine, total protein, albumin, calcium, aspartate aminotransferase (AST), alanine aminotransferase, alkaline phosphatase, total bilirubin, creatine kinase (CK), sodium, potassium and chloride.

beagle dogs [5] = experiment: Hematology in the 13-week repeated-dose dog study; type: in vivo
Description: as §1, §2
The differential granulocytic and erythrocytic series (erythroid, myeloid blast cell count and the red ratio) were determined manually from blood smears.

[6] = Toxicokinetic analysis of plasma drug levels (HPLC); type: in vivo, dog; conditions: both sexes, beagle, dog, plasma, other: ART p.o., ARM i.m., 6 mg/kg, ARM i.m.; for AUC: 6 mg kg^−1 daily, ART p.o., dog plasma
Description: as §1
For toxicokinetic analysis, blood samples were collected on weeks 1, 2, 4, 8 and 13 at 0 (before dosing), 0.5, 1, 2, 4, 8, 12 and 24 h after dosing. Approximately 1 ml blood was drawn from the antebrachial, cephalic or jugular vein of three animals of each sex per time point and deposited into heparinized tubes for immediate centrifugation at 3000 rpm at 4°C for 10 min. The plasma was then immediately transferred to 2 ml polypropylene tubes and stored on dry ice. Samples were stored at −80°C until HPLC analysis.

beagle dogs [7] = experiment: Pathologic (histopathological) examination of organs, brain and cardiac conduction system; type: in vivo, dog
Description: as §1
Termination of treatment was scheduled to occur on weeks 4, 8 (two interim necropsies) and 13, followed by a 4-week recovery period. For pathological examinations, the animals were euthanized within 24 h of the final drug administration with sodium pentobarbital, followed by exsanguination via the femoral artery. A gross necropsy was performed, including a thorough visual examination of all the internal organs. Weights were obtained for the brain, heart, liver, spleen, lung, kidneys, adrenals, thyroid/parathyroids, thymus, pancreas and ovaries/testes/prostate, and organ-to-body weight ratios were calculated. For each animal, representative samples from approximately 48 organs and tissues were taken and fixed in neutral buffered 10% formalin, except for the sternum, which was retained in Helly’s fixative (1000 ml distilled water, 25 g potassium dichromate, 10 g sodium sulfate, 50 g mercuric chloride, 50 ml 40% formaldehyde). Histopathological sections of all samples were prepared by embedding in paraffin wax, multiple-sectioning and staining with hematoxylin and eosin (HE). Samples of the left ventricular myocardium, right lateral hepatic lobe and right kidney from two animals of each sex from each group were fixed immediately after exsanguination in 2.5% glutaraldehyde, post-fixed in 1.0% osmium tetroxide, and embedded in plastic. Ultrathin liver, kidney and heart sections were examined with a Hitachi H-600 transmission electron microscope (TEM). All other tissues were examined by light microscopy.
After removal, the cardiac conduction system, including the sinoatrial node (SAN) and atrioventricular node (AVN), were selected by the Palate method. The brain was sectioned at multiple transverse levels to obtain susceptible brain regions. To improve the definition of the brain lesions, toluidine stains were applied on selected duplicate sections, and all preparations were examined under a light microscope. For pathologic examinations, degenerative neurons were evaluated on three randomly selected brain sections. The adjacent fields of neurons in each selected section were counted using a microscope at a magnification of 200×. […] The severity of the neuropathological lesions was defined as follows: the total number of neuropathological lesions per section area yielded a severity score from 0 to 4, where 0 = unaffected, 1 = minimally affected neurons with one degenerative cell per section, 2 = two degenerative cells per section, 3 = three degenerative cells per section and 4 = multiple degenerative areas per section.

beagle dogs [8] = experiment: Ultra-structural examination of liver, kidney and heart by transmission electron microscopy; type: in vivo, dog; conditions: weeks 4, 8 and 13; TEM
Description: as §1
Termination of treatment was scheduled to occur on weeks 4, 8 (two interim necropsies) and 13, followed by a 4-week recovery period. For pathological examinations, the animals were euthanized within 24 h of the final drug administration with sodium pentobarbital, followed by exsanguination via the femoral artery. A gross necropsy was performed, including a thorough visual examination of all the internal organs. Weights were obtained for the brain, heart, liver, spleen, lung, kidneys, adrenals, thyroid/parathyroids, thymus, pancreas and ovaries/testes/prostate, and organ-to-body weight ratios were calculated. For each animal, representative samples from approximately 48 organs and tissues were taken and fixed in neutral buffered 10% formalin, except for the sternum, which was retained in Helly’s fixative (1000 ml distilled water, 25 g potassium dichromate, 10 g sodium sulfate, 50 g mercuric chloride, 50 ml 40% formaldehyde). […]

[9] = Week 13, females, 6 mg kg^-1 per day
[10] = week 2 until week 10 post-treatment, vs control groups (p<0.05)
[11] = Week 4, 6 mg kg^-1 per day (ART p.o., ARM i.m.)
[12] = Week 8, 6 mg kg^-1 per day (ART p.o., ARM i.m.)
[13] = Week 13, 6 mg kg^-1 per day (ART p.o., ARM i.m.)
[14] = Week 17 (after 4-week recovery)
[15] = both treated groups, no significant differences

Structure (SMILES): CCO[C@H]1O[C@@H]2O[C@@]3(C)CC[C@H]4[C@H](C)CC[C@@H]([C@H]1C)[C@@]24OO3 [ARE, arteether]
calculated average minimal daily dose necessary to produce toxicity observable by histopathology (Dogs): 6 mg kg^−1
solubility character [1]: fat soluble

Structure (SMILES): C[C@H]1[C@@H](O)O[C@@H]2O[C@@]3(C)CC[C@H]4[C@H](C)CC[C@@H]1[C@@]24OO3 [DHA, dihydroartemisinin]
decline of plasma concentrations [2]: declined much faster after oral administration

Clinical chemistry (overall) (beagle dogs [4]; Week 8, 6 mg kg^-1 per day): - (“-” = No effect)
Clinical chemistry: Alb(F) (beagle dogs [4]; [9]): ↓TP(F), ↓Alb(F)
Clinical chemistry: TP(F) (beagle dogs [4]; [9]): ↓TP(F), ↓Alb(F)
serum albumin levels (beagle dogs [4]; weeks 10 and 12): significant decrease
Hematology: Hb (beagle dogs [5]; Week 4, 6 mg kg^-1 per day): ↓Hct, ↓Hb
Hematology: Hct (beagle dogs [5]; Week 4, 6 mg kg^-1 per day): ↓Hct, ↓Hb
Hematology: Hb (beagle dogs [5]; Week 8, 6 mg kg^-1 per day): ↓Hct, ↓Hb, ↓MCV
Hematology: Hct (beagle dogs [5]; Week 8, 6 mg kg^-1 per day): ↓Hct, ↓Hb, ↓MCV
Hematology: MCV (beagle dogs [5]; Week 8, 6 mg kg^-1 per day): ↓Hct, ↓Hb, ↓MCV
Hematology: Hb (beagle dogs [5]; Week 13, 6 mg kg^-1 per day): ↓Hct, ↓Hb
Hematology: Hct (beagle dogs [5]; Week 13, 6 mg kg^-1 per day): ↓Hct, ↓Hb
MO% (beagle dogs [5]; males and females, after weeks 2 and 4 (p<0.05)): significant increases
Hb levels (beagle dogs [5]; week 2): corresponding decrease
RBC counts (beagle dogs [5]; week 2): decrease
LY% (beagle dogs [5]; [10]): decreased
NE% (beagle dogs [5]; [10]): significantly increased
WBC count (beagle dogs [5]; [10]): significantly increased
Structure (SMILES): C[C@H]1[C@H](OC(=O)CCC(=O)O)O[C@@H]2O[C@@]3(C)CC[C@H]4[C@H](C)CC[C@@H]1[C@@]24OO3 [ART, artesunate]
heart rate during treatment (beagle dogs [3]): statistically significant decrease
AUC ([6]; week 8, read-out: AUC8w): 580 ± 211 ng·h/mL
AUC ([6]; week four, read-out: AUC4w): 1270 ± 539 ng·h/mL
AUC(0-t) ([6]; read-out: AUC93D): 729 ± 440 ng·h/mL
neurotoxicity (beagle dogs [7]; 6 mg kg^-1 per day p.o. for 13 weeks): not observed
Cardiac conduction system foci (dogs affected/examined) (beagle dogs [7]; [11]): 0
Extramedullary hematopoiesis (dogs affected/examined) (beagle dogs [7]; [11]): 3/4
Hepatocyte necrosis (dogs affected/examined) (beagle dogs [7]; [11]): 0
Inhibition of erythropoiesis (dogs affected/examined) (beagle dogs [7]; [11]): 2/4
Neuronal necrosis (dogs affected/examined) (beagle dogs [7]; [11]): 0
Tubular cell degeneration (dogs affected/examined) (beagle dogs [7]; [11]): 2/4
Cardiac conduction system foci (dogs affected/examined) (beagle dogs [7]; [12]): 1/4
Extramedullary hematopoiesis (dogs affected/examined) (beagle dogs [7]; [12]): 1/4
Hepatocyte necrosis (dogs affected/examined) (beagle dogs [7]; [12]): 0
Inhibition of erythropoiesis (dogs affected/examined) (beagle dogs [7]; [12]): 0
Neuronal necrosis (dogs affected/examined) (beagle dogs [7]; [12]): 0
Tubular cell degeneration (dogs affected/examined) (beagle dogs [7]; [12]): 3/4
Cardiac conduction system foci (dogs affected/examined) (beagle dogs [7]; [13]): 2/4
Extramedullary hematopoiesis (dogs affected/examined) (beagle dogs [7]; [13]): 0
Hepatocyte necrosis (dogs affected/examined) (beagle dogs [7]; [13]): 0
Inhibition of erythropoiesis (dogs affected/examined) (beagle dogs [7]; [13]): 0
Neuronal necrosis (dogs affected/examined) (beagle dogs [7]; [13]): 0
Tubular cell degeneration (dogs affected/examined) (beagle dogs [7]; [13]): 0
Cardiac conduction system foci (dogs affected/examined) (beagle dogs [7]; [14]): 0
Extramedullary hematopoiesis (dogs affected/examined) (beagle dogs [7]; [14]): 0
Hepatocyte necrosis (dogs affected/examined) (beagle dogs [7]; [14]): 0
Inhibition of erythropoiesis (dogs affected/examined) (beagle dogs [7]; [14]): 0
Neuronal necrosis (dogs affected/examined) (beagle dogs [7]; [14]): 0
Tubular cell degeneration (dogs affected/examined) (beagle dogs [7]; [14]): 1/4
histological examination of sternal bone marrow (beagle dogs [7]; [15]): mild inhibition of erythropoiesis and a decreased count of mature erythrocytes
spleen histology (beagle dogs [7]; [15]): extramedullary hematopoiesis was observed in the spleen
histopathological changes in the kidneys (beagle dogs [7]; vs control groups): tubular epithelium vacuolation and necrosis
ultra-structural findings in hepatocytes, myocardial cells and proximal tubules in the kidney (beagle dogs [8]): Mitochondrial bending and distortion and swollen vacuoles
solubility character [1]: water soluble
decline of plasma concentrations [2]: declined much faster after oral administration

Reference: publication PMC3989207, “Subchronic Toxicological Study of Two Artemisinin Derivatives in Dogs” (PLoS ONE, 2014)
